Laboratory results taken from ChEMBL document CHEMBL1145293, “Synthesis and SAR of GlyT1 inhibitors derived from a series of N-((4-(morpholine-4-carbonyl)-1-(propylsulfonyl)piperidin-4-yl)methyl)benzamides” (Bioorg Med Chem Lett, 2006).

Assays:
Cytochrome P450 2D6 = Cytochrome P450 2D6 (Homo sapiens, UniProt P10635); experiment: Inhibition of CYP2D6; assay type: ADME
[1] = Clearance in rat; assay type: ADME, organism-based; details: in vivo
[2] = molecular target: T1, Sodium- and chloride-dependent glycine transporter 1 (Rattus norvegicus, UniProt P28572); experiment: Inhibition of rat GlyT1
T1 sequence (P28572 whole entry): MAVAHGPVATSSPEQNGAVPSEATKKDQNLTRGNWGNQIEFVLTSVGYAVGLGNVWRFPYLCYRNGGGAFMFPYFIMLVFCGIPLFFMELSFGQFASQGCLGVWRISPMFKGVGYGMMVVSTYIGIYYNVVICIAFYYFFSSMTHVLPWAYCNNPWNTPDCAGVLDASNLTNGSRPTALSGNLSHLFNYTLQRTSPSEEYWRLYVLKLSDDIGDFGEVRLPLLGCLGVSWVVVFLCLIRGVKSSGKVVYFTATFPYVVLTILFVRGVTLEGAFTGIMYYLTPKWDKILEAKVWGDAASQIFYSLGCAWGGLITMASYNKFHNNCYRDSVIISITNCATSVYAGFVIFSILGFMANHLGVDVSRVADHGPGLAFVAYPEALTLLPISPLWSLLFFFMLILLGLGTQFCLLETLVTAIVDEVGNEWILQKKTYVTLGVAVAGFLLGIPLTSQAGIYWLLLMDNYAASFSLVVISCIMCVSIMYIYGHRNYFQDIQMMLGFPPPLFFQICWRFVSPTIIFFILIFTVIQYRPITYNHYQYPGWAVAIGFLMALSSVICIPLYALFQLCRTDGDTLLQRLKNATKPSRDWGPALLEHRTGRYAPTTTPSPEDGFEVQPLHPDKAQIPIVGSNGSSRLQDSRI

Caco-2 [3] = experiment: Ratio of permeability from basolateral to apical over apical to basolateral side of Caco-2 cell expressing mouse p-glycoprotein; assay type: ADME, cell-based; details: human
Caco-2 [4] = experiment: Ratio of permeability from basolateral to apical over apical to basolateral side of Caco-2 cell expressing human p-glycoprotein; assay type: ADME, cell-based

Sequence of Cytochrome P450 2D6 (P10635 whole entry): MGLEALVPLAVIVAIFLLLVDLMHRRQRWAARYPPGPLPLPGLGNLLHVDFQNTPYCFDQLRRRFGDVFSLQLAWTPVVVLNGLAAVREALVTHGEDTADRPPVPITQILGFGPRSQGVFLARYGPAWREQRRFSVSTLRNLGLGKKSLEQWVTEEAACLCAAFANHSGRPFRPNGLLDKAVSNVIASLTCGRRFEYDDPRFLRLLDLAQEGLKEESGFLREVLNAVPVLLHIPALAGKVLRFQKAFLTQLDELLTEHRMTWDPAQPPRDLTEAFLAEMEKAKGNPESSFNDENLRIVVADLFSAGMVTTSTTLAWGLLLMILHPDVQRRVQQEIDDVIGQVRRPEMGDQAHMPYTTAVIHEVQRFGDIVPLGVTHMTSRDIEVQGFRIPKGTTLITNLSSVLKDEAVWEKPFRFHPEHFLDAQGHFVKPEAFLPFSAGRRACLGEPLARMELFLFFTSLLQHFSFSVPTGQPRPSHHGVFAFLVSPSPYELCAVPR

| SMILES | Activity (Cytochrome P450 2D6) | clearance [1] [mL/min/kg] | IC50 [2] [nM] | Ratio (Caco-2 [3]) | Ratio (Caco-2 [4]) |
| --- | --- | --- | --- | --- | --- |
| CCCS(=O)(=O)N1CCC(CNC(=O)c2ccccc2Cl)(C(=O)N2CCOCC2)CC1 | Not Active | 18 | 18.3 | 8.9 | 10.6 |
| CCCS(=O)(=O)N1CCC(CNC(=O)c2ccc(F)cc2Cl)(C(=O)N2CCOCC2)CC1 | Not Active | 18 | 10.1 | 8.9 | 10.6 |
| CCCS(=O)(=O)N1CCC(CNC(=O)c2cc(F)c(Cl)cc2Cl)(C(=O)N2CCOCC2)CC1 | Not Active | 18 | 7.4 | 8.9 | 10.6 |

Continued by falling IC50 [2], values first:

| Activity (Cytochrome P450 2D6) | clearance [1] [mL/min/kg] | IC50 [2] [nM] | Ratio (Caco-2 [3]) | Ratio (Caco-2 [4]) | SMILES |
| --- | --- | --- | --- | --- | --- |
| Not Active | 18 | 22.1 | 8.9 | 10.6 | CCCS(=O)(=O)N1CCC(CNC(=O)c2c(F)cccc2Cl)(C(=O)N2CCOCC2)CC1 |
| Not Active | 18 | 19.7 | 8.9 | 10.6 | CCCS(=O)(=O)N1CCC(CNC(=O)c2c(F)ccc(Cl)c2F)(C(=O)N2CCOCC2)CC1 |
| Not Active | 20.5 | 3.2 | 11.4 | 17.9 | CCCS(=O)(=O)N1CCC(CNC(=O)c2ccc(Cl)cc2Cl)(C(=O)N2CCOCC2)CC1 |
